# Earlier results in article PMC12207366, “Protonated Glutamate and Aspartate Side Chains Can Recognize Phosphodiester Groups via Strong and Short Hydrogen Bonds in Biomacromolecular Complexes” (Angewandte Chemie (International Ed. in English), 2025).
# Details: unstructured peptides; cited from earlier work
structure (smiles),measurement,value
N[C@@H](CC(=O)O)C(=O)O [aspartate],pKa of side chain carboxylate group,~3.9
